Source: patent publication US11286263B2, “Macrocyclic fluorine substituted indole derivatives” (The Broad Institute, Inc., priority 2017, dated 2022)
Several values for one entry are separate records, joined by “and”; a condition that tells them apart may be missing. Equal entries are not always repeated. Where two headings read alike, the source gives them in different places.

Experiments:
[1] = tested on: MV-4-11; assay: Antiproliferation assay MV-4-11 (Assay 7); format: cell-based; conditions: MV-4-11 cells, CellTiter-Glo, single determinations, read-out: IC50 Antiproli MV-4-11
How it was run: (§1)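 Proliferation is determined by CellTiter-Glo luminescence following 72 h incubation with compound at 37 °C, relative to a time-zero plate measured at plating.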

[2] = tested on: SUDHL10; assay: Induction of caspase-3/7 activity, SUDHL10 (Assay 4); format: cell-based; conditions: Homo sapiens, SU-DHL10, 3 h, SUDHL10 cells, Caspase-Glo 3/7, median
How it was run: (§2)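 DLBCL lines treated with compounds for 3 h at 37° C.; caspase-3/7 activity read by Caspase-Glo 3/7 luminescence. Medium-only background subtracted; EC50 fitted with bottom fixed at 1 and top set to reference compound's maximal induction.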

[3] = tested on: SUDHL5; assay: Induction of cytotoxicity, SUDHL5 (Assay 6); conditions: Homo sapiens, SU-DHL-5, 5 h, read-out: IC50 Cytotox SUDHL5 [M] (median), SUDHL5 cells, 5 h, CellTiter-Glo
Method: In principle, compounds that induce apoptosis will concomitantly induce cell cytotoxicity. Therefore, cytotoxicity assays were run in parallel in SUDHL5 and SUDHL10 cells.
The different cell lines were plated in culture medium (RPMI 1640 [GIBCO #22400-089] supplemented with 10% Fetal Bovine Serum) at a density of 3,300 cells in 30 μl/well in a sterile, solid black, flat bottom, polystyrene, TC-treated 384-well microplate (Corning #3571) using Multidrop Combi Reagent Dispenser. As a control, medium without cells was also added to the plate. Cells were incubated in a humidified incubator at 37° C. overnight. On the next day, the cells were treated with compounds (stock solution, 10 mM in DMSO) using the HP D300 Digital Dispenser in a concentration range of 3.3×10e-5 M (33 μM) to 5×10e-9 M (5 nM) in a single-dot curve with at least 16 dilutions and a DMSO concentration of 0.33%. Rim wells were excluded. The cells were incubated for 5 h hours in a humidified incubator at 37° C. After this incubation, 30 μl of CellTiter-Glo® Luminescent Cell Viability reagent (Promega, G7573) was added to each well using the Multidrop Combi Reagent Dispenser, followed by 15 min incubation on a shaker at room temperature. Finally, luminescence was read at 0.1 ms, with a gain of 3000 using the PHERAstar FS microplate reader (BMG Labtech).
The Bella DRC Master Sheet was used to calculate IC50s, with fixed CI=0 and C0=1.

[4] = target: BCL-2 (Homo sapiens (Human), UniProt P10415); assay: Protein-protein interaction assay BCL-2/Bad BH3 peptide (BCL-2 assay), TR-FRET; format: binding; conditions: BCL-2/Bad BH3 peptide TR-FRET; median
Sequence of BCL-2 (P10415 1-211): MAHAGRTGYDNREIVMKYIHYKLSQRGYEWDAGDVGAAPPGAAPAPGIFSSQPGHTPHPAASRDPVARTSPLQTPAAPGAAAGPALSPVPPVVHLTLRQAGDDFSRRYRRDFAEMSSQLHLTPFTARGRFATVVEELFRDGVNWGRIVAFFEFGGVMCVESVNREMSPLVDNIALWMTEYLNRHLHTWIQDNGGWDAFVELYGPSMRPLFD

[5] = tested on: SUDHL5; assay: Antiproliferation assay SUDHL5 (Assay 7); format: cell-based; conditions: Homo sapiens, SU-DHL-5, 72 h, SUDHL5 cells, CellTiter-Glo, median, read-out: IC50 Antiproli SUDHL5 [M] (median)
How it was run: as §1

[6] = tested on: SUDHL5; assay: Induction of caspase-3/7 activity, SUDHL5 (Assay 4); format: cell-based; conditions: Homo sapiens, SU-DHL-5, 3 h, SUDHL5 cells, Caspase-Glo 3/7, median
How it was run: as §2

| Structure (SMILES) | IC50 ([1]; Homo sapiens, MV4-11, 72 h) [µM] | EC50 [2] [µM] | IC50 [3] [M] | IC50 [4] [µM] | IC50 [5] [M] | EC50 [6] [µM] | IC50 ([1]; 72 h) |
| --- | --- | --- | --- | --- | --- | --- | --- |
| Cc1nn(C)c2c1-c1c(F)ccc3c(CCCOc4cccc5c4CCC5)c(C(=O)O)n(c13)CCCCOC2 (racemic) [Example 35, (rac)-1-(3-((2,3-dihydro-1H-inden-4-yl)oxy)propyl)-13-fluoro-10,12-dimethyl-4,5,6,7,9,10-hexahydropyrazolo[4′,3′:9,10][1]oxa[6]azacycloundecino[8,7,6-hi]indole-2-carboxylic acid] | 12.4 | 20 | 7.1e-06 | > 20 | 6e-06 | 6.2 |  |
| CCc1nn(C)c2c1-c1c(F)ccc3c(CCCOc4cccc5c4CCCC5)c(C(=O)O)n(c13)CCCCOC2 (racemic) [Example 44, (rac)-12-ethyl-13-fluoro-10-methyl-1-(3-((5,6,7,8-tetrahydronaphthalen-1-yl)oxy)propyl)-4,5,6,7,9,10-hexahydropyrazolo[4′,3′:9,10][1]oxa[6]azacycloundecino[8,7,6-hi]indole-2-carboxylic acid] | 9.83 | 4.5 | 1.9e-06 | > 20 | 5.5e-07 | 1.6 |  |
| Cc1c2c(nn1C)COCCCCn1c(C(=O)O)c(CCCOc3cccc4c3CCCC4)c3ccc(F)c-2c31 (racemic) [Example 18, (rac)-13-fluoro-11,12-dimethyl-1-(3-((5,6,7,8-tetrahydronaphthalen-1-yl)oxy)propyl)-4,5,6,7,9,11-hexahydropyrazolo[4′,3′:9,10][1]oxa[6]azacycloundecino[8,7,6-hi]indole-2-carboxylic acid] | 3.53 | 2.3 | 8.8e-07 | > 20 | 1.2e-06 | 0.84 | 2.89 µM and 5.61 µM |
| CCc1nn(C)c2c1-c1c(F)ccc3c(CCCOc4cccc5ccccc45)c(C(=O)O)n(c13)C/C=C\COC2 (racemic) [Example 11, (rac)-(Z)-12-ethyl-13-fluoro-10-methyl-1-(3-(naphthalen-1-yloxy)propyl)-4,7,9,10-tetrahydro-pyrazolo[4′,3′:9,10][1]oxa[6]azacycloundecino[8,7,6-hi]indole-2-carboxylic acid] | 7.67 | 6.5 | 2.3e-06 | > 20 | 2.8e-06 | 2.1 | 12.8 µM |
